Test results: patent US6737383B1, “Herbicidal oxadiazolidines” (priority 1999, dated 2004)

Legend:
morningglory = assay: Test B pre/postemergence morningglory; format: in vivo, Ipomoea hederacea; conditions: for Plant response rating, Morningglory: scale of 0 to 10 where 0 is no effect and 10 is complete control
Outline: (§1)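 Herbicidal effect was estimated by eye on a ten-point control scale after plants spent twelve to sixteen days in a greenhouse following soil or foliar treatment. Foliar sprays targeted plants at one to four leaves; all doses were formulated in a non-phytotoxic solvent with surfactant.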

corn = assay: Test B pre/postemergence corn; format: in vivo, Zea mays
Outline: as §1

pigweed = assay: Test B pre/postemergence pigweed; format: in vivo, Amaranthus retroflexus; conditions: for Plant response rating, Redroot pigweed: scale of 0 to 10 where 0 is no effect and 10 is complete control
Outline: as §1

soybean = assay: Test B pre/postemergence soybean; format: in vivo, Glycine max; conditions: for Plant response rating, Soybean: scale of 0 to 10 where 0 is no effect and 10 is complete control
Outline: as §1

bamyardgrass = assay: Test B flood test barnyardgrass; format: in vivo, Echinochloa crus-galli
Outline: (§2)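 Flood test on plants grown to the 2-leaf stage; treated plants kept in greenhouse twelve to sixteen days, then visually rated against controls on a 0 (no effect) to 10 (complete control) scale.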

rice = assay: Test B flood test rice; format: in vivo, Oryza sativa
Outline: as §2

cocklebur = assay: Test B pre/postemergence cocklebur; format: in vivo, Xanthium strumarium
Outline: as §1

blackgrass = assay: Test B pre/postemergence blackgrass; format: in vivo, Alopecurus myosuroides
Outline: as §1

rape = assay: Test B pre/postemergence rape; format: in vivo, Brassica napus; conditions: for Plant response rating, Rape: scale of 0 to 10 where 0 is no effect and 10 is complete control
Outline: as §1

giant foxtail = assay: Test B pre/postemergence giant foxtail; format: in vivo, Setaria faberii
Outline: as §1

crabgrass = assay: Test B pre/postemergence crabgrass; format: in vivo, Digitaria sanguinalis
Outline: as §1

velvetleaf = assay: Test B pre/postemergence velvetleaf; format: in vivo, Abutilon theophrasti; conditions: for Plant response rating, Velvetleaf: scale of 0 to 10 where 0 is no effect and 10 is complete control
Outline: as §1

duck salad = assay: Test B flood test duck salad; format: in vivo, Heteranthera limosa
Outline: as §2

wild oat = assay: Test B pre/postemergence wild oat; format: in vivo, Avena fatua; conditions: for Plant response rating, Wild oats: scale of 0 to 10 where 0 is no effect and 10 is complete control
Outline: as §1

sugar beet = assay: Test B pre/postemergence sugar beet; format: in vivo, Beta vulgaris; conditions: for Plant response rating, Sugarbeets: scale of 0 to 10 where 0 is no effect and 10 is complete control
Outline: as §1

surinam grass = assay: Test B pre/postemergence surinam grass; format: in vivo, Brachiaria decumbens
Outline: as §1

[1] = Postemergence, Rate 250 g/ha, scale 0 to 10
[2] = Preemergence, Rate 250 g/ha, scale 0 to 10, 0 is no effect, 10 is complete control
[3] = Preemergence, Rate 500 g/ha, scale 0 to 10, 0 is no effect, 10 is complete control
[4] = Rate 62 g/ha, Postemergence, scale 0 to 10 (0 no effect, 10 complete control)
[5] = Rate 125 g/ha, Postemergence, scale 0 to 10, 0 is no effect, 10 is complete control
[6] = Postemergence, Rate 500 g/ha, scale of 0 to 10 where 0 is no effect and 10 is complete control
[7] = Preemergence, Rate 62 g/ha, scale of 0 to 10 where 0 is no effect and 10 is complete control
[8] = Preemergence, Rate 125 g/ha, scale of 0 to 10 where 0 is no effect and 10 is complete control
[9] = Rate 62 g/ha, flood test species, Pre-emergence, visual evaluation after twelve to sixteen days
[10] = Rate 125 g/ha, under heading Pre-emergence, flood test species, visual evaluation after twelve to sixteen days
[11] = Rate 250 g/ha, Pre-emergence (flood test species), scale 0 to 10, 0 is no effect, 10 is complete control
[12] = Rate 500 g/ha, Pre-emergence, flood test species, scale 0 to 10 (0 no effect, 10 complete control)

`CC(C)N(C(=O)n1oc(=O)n(CC(=O)N(C)C)c1=O)c1ccc(Cl)cc1` [Compound 477] was tested, and the “Morningglory plant response rating” value (morningglory; [1]) was 10, the “Plant response rating, Morningglory” value (morningglory; Preemergence, Rate 62 g/ha) was 0 and the “Plant response rating, Morningglory” value (morningglory; Preemergence, Rate 125 g/ha) was 0. The “Morningglory plant response rating” value (morningglory; [2]) was 0, the “Morningglory plant response rating” value (morningglory; [3]) was 0 and the “Morningglory plant response rating” value (morningglory; [4]) was 6. The “Morningglory plant response rating” value (morningglory; [5]) was 7, the “Corn plant response rating” value (corn; [1]) was 0 and the “Corn plant response rating” value (corn; [6]) was 0. The “Plant response rating, Corn” value (corn; [7]) was 0, the “Plant response rating, Corn” value (corn; [8]) was 0 and the “Corn plant response rating” value (corn; [2]) was 0. For the same molecule, the “Corn plant response rating” value (corn; [3]) was 0, the “Corn plant response rating” value (corn; [4]) was 0 and the “Corn plant response rating” value (corn; [5]) was 0. The “Redroot pigweed plant response rating” value (pigweed; [1]) was 2, the “Plant response rating, Redroot pigweed” value (pigweed; Preemergence, Rate 62 g/ha) was 0 and the “Plant response rating, Redroot pigweed” value (pigweed; Preemergence, Rate 125 g/ha) was 1. The “Redroot pigweed plant response rating” value (pigweed; [2]) was 6, the “Redroot pigweed plant response rating” value (pigweed; [3]) was 8 and the “Redroot pigweed plant response rating” value (pigweed; [4]) was 0. The “Redroot pigweed plant response rating” value (pigweed; [5]) was 0, the “Soybean plant response rating” value (soybean; [1]) was 2 and the “Plant response rating, Soybean” value (soybean; Preemergence, Rate 62 g/ha) was 0. For the same molecule, the “Plant response rating, Soybean” value (soybean; Preemergence, Rate 125 g/ha) was 0, the “Soybean plant response rating” value (soybean; [2]) was 3 and the “Soybean plant response rating” value (soybean; [3]) was 4. For the same molecule, the “Soybean plant response rating” value (soybean; [4]) was 1, the “Soybean plant response rating” value (soybean; [5]) was 1 and the “Plant response rating, Barnyardgrass (0 to 10 scale, 0 is no effect, 10 is complete control)” value (bamyardgrass; [9]) was 0. The “Barnyardgrass plant response rating (0 to 10 scale, 0 is no effect, 10 is complete control)” value (bamyardgrass; [10]) was 0, the “Barnyardgrass plant response rating” value (bamyardgrass; [11]) was 0 and the “Barnyardgrass plant response rating” value (bamyardgrass; [12]) was 0. The “Plant response rating, Rice (0 to 10 scale, 0 is no effect, 10 is complete control)” value (rice; [9]) was 0, the “Rice plant response rating (0 to 10 scale, 0 is no effect, 10 is complete control)” value (rice; [10]) was 0 and the “Rice plant response rating” value (rice; [11]) was 0. The “Rice plant response rating” value (rice; [12]) was 0, the “Cocklebur plant response rating” value (cocklebur; [1]) was 0 and the “Cocklebur plant response rating” value (cocklebur; [6]) was 0. For the same molecule, the “Plant response rating, Cocklebur” value (cocklebur; [7]) was 0, the “Plant response rating, Cocklebur” value (cocklebur; [8]) was 0 and the “Cocklebur plant response rating” value (cocklebur; [2]) was 0. The “Cocklebur plant response rating” value (cocklebur; [3]) was 0, the “Cocklebur plant response rating” value (cocklebur; [4]) was 0 and the “Cocklebur plant response rating” value (cocklebur; [5]) was 0. The “Blackgrass plant response rating” value (blackgrass; [1]) was 6, the “Blackgrass plant response rating” value (blackgrass; [6]) was 6 and the “Plant response rating, Blackgrass” value (blackgrass; [7]) was 0. The “Plant response rating, Blackgrass” value (blackgrass; [8]) was 1, the “Blackgrass plant response rating” value (blackgrass; [2]) was 7 and the “Blackgrass plant response rating” value (blackgrass; [3]) was 8. The “Blackgrass plant response rating” value (blackgrass; [4]) was 0, the “Blackgrass plant response rating” value (blackgrass; [5]) was 0 and the “Rape plant response rating” value (rape; [1]) was 1. For the same molecule, the “Plant response rating, Rape” value (rape; Preemergence, Rate 62 g/ha) was 0, the “Plant response rating, Rape” value (rape; Preemergence, Rate 125 g/ha) was 0 and the “Rape plant response rating” value (rape; [2]) was 0. The “Rape plant response rating” value (rape; [3]) was 2, the “Rape plant response rating” value (rape; [4]) was 0 and the “Rape plant response rating” value (rape; [5]) was 0. The “Giant foxtail plant response rating” value (giant foxtail; [1]) was 6, the “Giant foxtail plant response rating” value (giant foxtail; [6]) was 7 and the “Plant response rating, Giant foxtail” value (giant foxtail; [7]) was 6. The “Plant response rating, Giant foxtail” value (giant foxtail; [8]) was 6, the “Giant foxtail plant response rating” value (giant foxtail; [2]) was 9 and the “Giant foxtail plant response rating” value (giant foxtail; [3]) was 10. The “Giant foxtail plant response rating” value (giant foxtail; [4]) was 2, the “Giant foxtail plant response rating” value (giant foxtail; [5]) was 2 and the “Crabgrass plant response rating” value (crabgrass; [1]) was 5. The “Crabgrass plant response rating” value (crabgrass; [6]) was 7, the “Plant response rating, Crabgrass” value (crabgrass; [7]) was 8 and the “Plant response rating, Crabgrass” value (crabgrass; [8]) was 8. The “Crabgrass plant response rating” value (crabgrass; [2]) was 10, the “Crabgrass plant response rating” value (crabgrass; [3]) was 10 and the “Crabgrass plant response rating” value (crabgrass; [4]) was 1. The “Crabgrass plant response rating” value (crabgrass; [5]) was 2, the “Velvetleaf plant response rating” value (velvetleaf; [1]) was 0 and the “Plant response rating, Velvetleaf” value (velvetleaf; Preemergence, Rate 62 g/ha) was 0. For the same molecule, the “Plant response rating, Velvetleaf” value (velvetleaf; Preemergence, Rate 125 g/ha) was 0, the “Velvetleaf plant response rating” value (velvetleaf; [2]) was 0 and the “Velvetleaf plant response rating” value (velvetleaf; [3]) was 0. The “Velvetleaf plant response rating” value (velvetleaf; [4]) was 0, the “Velvetleaf plant response rating” value (velvetleaf; [5]) was 0 and the “Plant response rating, Ducksalad (0 to 10 scale, 0 is no effect, 10 is complete control)” value (duck salad; [9]) was 0. The “Ducksalad plant response rating (0 to 10 scale, 0 is no effect, 10 is complete control)” value (duck salad; [10]) was 0, the “Ducksalad plant response rating” value (duck salad; [11]) was 0 and the “Ducksalad plant response rating” value (duck salad; [12]) was 0. For the same molecule, the “Wild oats plant response rating” value (wild oat; [1]) was 0, the “Plant response rating, Wild oats” value (wild oat; Preemergence, Rate 62 g/ha) was 0 and the “Plant response rating, Wild oats” value (wild oat; Preemergence, Rate 125 g/ha) was 5. The “Wild oats plant response rating” value (wild oat; [2]) was 5, the “Wild oats plant response rating” value (wild oat; [3]) was 7 and the “Wild oats plant response rating” value (wild oat; [4]) was 0. For the same molecule, the “Wild oats plant response rating” value (wild oat; [5]) was 0, the “Sugarbeets plant response rating” value (sugar beet; [1]) was 0 and the “Plant response rating, Sugarbeets” value (sugar beet; Preemergence, Rate 62 g/ha) was 0. The “Plant response rating, Sugarbeets” value (sugar beet; Preemergence, Rate 125 g/ha) was 0, the “Sugarbeets plant response rating” value (sugar beet; [2]) was 0 and the “Sugarbeets plant response rating” value (sugar beet; [3]) was 0. For the same molecule, the “Sugarbeets plant response rating” value (sugar beet; [4]) was 0, the “Sugarbeets plant response rating” value (sugar beet; [5]) was 0 and the “B. signalgrass plant response rating” value (surinam grass; Postemergence, Rate 250 g/ha, scale 0 to 10, 0 no effect, 10 complete control) was 5. For the same molecule, the “B. signalgrass plant response rating” value (surinam grass; [6]) was 5, the “Plant response rating, B. signalgrass” value (surinam grass; [7]) was 0 and the “Plant response rating, B. signalgrass” value (surinam grass; [8]) was 2. For the same molecule, the “B. signalgrass plant response rating” value (surinam grass; [2]) was 4, the “B. signalgrass plant response rating” value (surinam grass; [3]) was 6 and the “B. signalgrass plant response rating” value (surinam grass; [4]) was 0. For the same molecule, the “B. signalgrass plant response rating” value (surinam grass; [5]) was 0.
